# From publication PMC2757182 (The Journal of Biological Chemistry, 2009)
# Substitutions are numbered along the chain they refer to.
# Assays:
# Assay in all cases: tryptophan fluorescence quenching
# Type in all cases: binding
# [1] = target: T1, GUN4 Δ1–69 (GENOMES UNCOUPLED 4) (Arabidopsis thaliana, UniProt Q9LX31)
# T1 sequence (Q9LX31 70-265): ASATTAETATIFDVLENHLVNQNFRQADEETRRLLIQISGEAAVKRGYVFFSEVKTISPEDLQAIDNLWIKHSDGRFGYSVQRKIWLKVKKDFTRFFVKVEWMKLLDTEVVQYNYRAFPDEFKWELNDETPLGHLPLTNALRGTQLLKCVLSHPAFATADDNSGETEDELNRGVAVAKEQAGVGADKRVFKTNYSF
# [2] = target: T2, GUN4 Δ1–69 (GENOMES UNCOUPLED 4) (Arabidopsis thaliana, UniProt Q9LX31, R211A)
# T2 sequence (Q9LX31 70-265 R211A): T1 sequence (Q9LX31 70-265) with R142A
# [3] = target: T3, GUN4 Δ1–69 (GENOMES UNCOUPLED 4) (Arabidopsis thaliana, UniProt Q9LX31, V123A)
# T3 sequence (Q9LX31 70-265 V123A): T1 sequence (Q9LX31 70-265) with V54A
# [4] = target: T4, GUN4 Δ1–69 (GENOMES UNCOUPLED 4) (Arabidopsis thaliana, UniProt Q9LX31, F191A)
# T4 sequence (Q9LX31 70-265 F191A): T1 sequence (Q9LX31 70-265) with F122A
smiles,measurement,setting,value
O=C(O)CCC1=C(CC(=O)O)c2cc3[nH]c(cc4nc(cc5[nH]c(cc1n2)c(CC(=O)O)c5CCC(=O)O)C(CCC(=O)O)=C4CC(=O)O)c(CC(=O)O)c3CCC(=O)O [Uroporphyrin III],Kd,[1],10 ± 0.57 µM
C=Cc1c(C)c2cc3nc(c4c5[nH]c(cc6nc(cc1[nH]2)C(C)=C6CC)c(C)c5C(=O)[C@@H]4C(=O)OC)[C@@H](CCC(=O)O)[C@@H]3C [Pheophorbide a],Kd,[1],3.8 ± 0.33 µM
C=CC1=C(C)c2cc3[nH]c(cc4nc(cc5[nH]c(cc1n2)c(C)c5CCC(=O)O)C(CCC(=O)O)=C4C)c(C)c3C=C [PPIX],Kd,[1],11 ± 0.5 µM
C=CC1=C(C)C2=Cc3c(C=C)c(C)c4[n]3[Fe]([Cl])[n]3c(c(C)c(CCC(=O)O)c3=CC3=NC(=C4)C(C)=C3CCC(=O)O)=CC1=N2 [Hemin],Kd,[1],8.1 ± 0.75 µM
CC1=C(CCC(=O)O)c2cc3nc(cc4[nH]c(cc5[nH]c(cc1n2)c(C)c5CCC(=O)O)c(CCC(=O)O)c4C)C(CCC(=O)O)=C3C [Coproporphyrin III],Kd,[1],15 ± 0.82 µM
CC1=C(CCC(=O)O)c2cc3nc(cc4[nH]c(cc4C)cc4[nH]c(cc1n2)cc4C)C(C)=C3CCC(=O)O [DPIX],Kd,[2],14 ± 0.83 µM
same,Kd,[3],9.6 ± 0.44 µM
same,Kd,[1],6.4 ± 0.21 µM
same,Kd,[4],12 ± 0.77 µM
